Holding throughout (format): cell-based
Assay [1] relates to LNCaP/AR cells. The assay is described as follows: Inhibition of proliferation of LNCaP/AR prostate cancer cells (CCK-8).
Assay [2] concerns the target T1, androgen receptor (AR) (Homo sapiens, UniProt P10275).
T1 sequence (P10275 1-920): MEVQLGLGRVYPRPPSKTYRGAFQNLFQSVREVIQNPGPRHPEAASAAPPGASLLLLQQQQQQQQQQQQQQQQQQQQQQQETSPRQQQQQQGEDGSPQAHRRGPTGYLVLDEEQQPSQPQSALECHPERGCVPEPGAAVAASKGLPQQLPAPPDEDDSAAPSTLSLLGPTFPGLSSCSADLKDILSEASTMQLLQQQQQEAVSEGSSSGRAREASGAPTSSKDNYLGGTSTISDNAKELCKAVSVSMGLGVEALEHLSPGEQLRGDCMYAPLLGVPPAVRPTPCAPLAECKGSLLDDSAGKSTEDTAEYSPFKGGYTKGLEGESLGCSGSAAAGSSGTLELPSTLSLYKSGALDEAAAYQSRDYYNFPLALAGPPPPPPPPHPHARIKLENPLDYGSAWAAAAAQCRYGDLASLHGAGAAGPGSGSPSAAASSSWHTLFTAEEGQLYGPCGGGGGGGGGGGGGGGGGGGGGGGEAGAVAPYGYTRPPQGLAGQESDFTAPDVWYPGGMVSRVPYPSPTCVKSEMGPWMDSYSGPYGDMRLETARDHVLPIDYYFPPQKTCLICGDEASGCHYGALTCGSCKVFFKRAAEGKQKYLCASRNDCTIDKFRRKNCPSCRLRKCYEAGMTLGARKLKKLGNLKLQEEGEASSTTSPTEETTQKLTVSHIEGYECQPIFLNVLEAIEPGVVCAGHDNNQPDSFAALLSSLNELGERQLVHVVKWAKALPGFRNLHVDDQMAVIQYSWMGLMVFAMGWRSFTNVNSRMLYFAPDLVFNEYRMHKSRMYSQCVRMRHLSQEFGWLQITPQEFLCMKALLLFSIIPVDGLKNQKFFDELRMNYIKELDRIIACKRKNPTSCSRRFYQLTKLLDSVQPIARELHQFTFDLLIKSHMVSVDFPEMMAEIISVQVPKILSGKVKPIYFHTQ
The assay is described as follows: Degradation of androgen receptor (AR) protein in VCaP cells by Western blot. The conditions noted are these: percentage of degraded AR at 100 nM, VCaP cells, 16 h. The method, boiled down:
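AR and β-actin levels were read by Western blot with ECL detection, loading 30 μg lysate protein per well. Before lysis, VCaP cells seeded at 5×10^5/well and grown overnight were exposed to compound for 16 h, two wells per concentration, keeping DMSO at 0.1%.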
Background: A western blot detects proteins with antibodies after separation by electrophoresis.

Assay [3] deals with T1, androgen receptor (AR). The assay is described as follows: Degradation of androgen receptor (AR) protein in VCaP cells by ELISA. (In an ELISA, binding on a coated surface is turned into a signal by an enzyme label.)
Setting [4] is: 144 h, proliferation of LNCap/AR cells, 6 days, CCK-8, read-out: IC50.

Read-outs that look alike come from different tables or passages of the source. A value given as a limit tells only on which side of the number the result lay.

For orientation: IC50 means the concentration needed to halve the response being measured. For the compound `N#Cc1ccc(O[C@H]2CC[C@H](N3Cc4nc(N5CCC(OC6CCN(c7cccc8c7C(=O)N(C7CCC(=O)NC7=O)C8=O)CC6)CC5)ccc4C3=O)CC2)cc1Cl` (stereo partly shown) [Compound 59, 2-chloro-4-(((1r,4r)-4-(2-(4-((1-(2-(2,6-dioxopiperidin-3-yl)-1,3-dioxoisoindolin-4-yl)piperidine-4-yl)oxy)piperidin-1-yl)-5-oxo-5H-pyrrolo[3,4-b]pyridin-6(7H)-yl)cyclohexyl)oxy)benzonitrile], in assay [1] (setting [4]), the IC50 was over 1000 nM. Besides, the inhibition at 0.1 µM in assay [2] is under 25%; in assay [3] (percentage of degraded AR at 100 nM, VCaP cells, 16 h, ELISA, read-out: % degradation), under 25%.

In the case of `N#Cc1ccc(OC2C[C@@H]3CN(C(=O)c4ccc(N5CCC(CN6CCN(c7ccc8c(c7)C(=O)N(C7CCC(=O)NC7=O)C8=O)CC6)CC5)nn4)C[C@@H]3C2)cc1Cl` (stereo partly shown) [Compound 218], the concentration for half-maximal inhibition (IC50) in assay [1] (setting [4]) was over 1000 nM. Also, the inhibition at 0.1 µM in assay [2] was under 25%.

Regarding `N#Cc1ccc(O[C@H]2CC[C@H](NC(=O)c3ccc(N4CCC(NC5CCN(c6cc7c(cc6F)C(=O)N(C6CCC(=O)NC6=O)C7=O)CC5)CC4)cc3)CC2)cc1Cl` (stereo partly shown) [Compound 219, N-((1r,4r)-4-(3-chloro-4-cyanophenoxy)cyclohexyl)-4-(4-((1-(2-(2,6-dioxopiperidin-3-yl)-6-fluoro-1,3-dioxoisoindolin-5-yl)piperidine-4-yl)amino)piperidin-1-yl)benzamide], the half-maximal inhibitory concentration (IC50) in assay [1] (LNCaP/AR, 144 h) was 500 to 1000 nM. The compound further returned an inhibition at 0.1 µM in assay [2] of 25 to 49%.

In assay [1] (LNCaP/AR, 144 h), `CC1(C)[C@H](Oc2ccc(C#N)c(Cl)c2)C(C)(C)[C@H]1N1Cc2cc(N3CCC(CN4CCN(c5ccc6c(c5)CN(C5CCC(=O)NC5=O)C6=O)CC4)CC3)ccc2C1=O` (stereo partly shown) [Compound 248] came in with an IC50 of 100 to 500 nM. In assay [2], this compound gave an inhibition at 0.1 µM of under 25%.

Take `CC1(C)[C@H](Oc2ccc(C#N)c(Cl)c2)C(C)(C)[C@H]1N1Cc2cc(N3CCC(CN4CCN(c5ccc6c(c5)C(=O)N(C5CCC(=O)NC5=O)C6=O)CC4)CC3)ccc2C1=O` (stereo partly shown) [Compound 249]: in assay [1] (setting [4]), the IC50 fell in the range of 100 to 500 nM. In addition, the inhibition at 0.1 µM in assay [2] is under 25%.

In the case of `CC1(C)[C@H](Oc2ccc(C#N)c(Cl)c2)C(C)(C)[C@H]1N1Cc2cc(N3CCC(CN4CCN(c5cc6c(cc5F)CN([C@@H]5CCC(=O)NC5=O)C6=O)CC4)CC3)ccc2C1=O` [Compound 250], in assay [1] (proliferation of LNCap/AR cells, 6 days, CCK-8, read-out: IC50), the IC50 fell in the range of 100 to 500 nM. The “% degradation” value in assay [2] is listed as “D (<25%)”; in assay [3], “D (key: A: >80%; B: 79%-50%; C: 49%-25%; D: <25%)”.

On to `CC1(C)[C@H](Oc2ccc(C#N)c(Cl)c2)C(C)(C)[C@H]1N1Cc2cc(N3CCC(CN4CCN(c5cc6c(cc5F)C(=O)N(C5CCC(=O)NC5=O)C6)CC4)CC3)ccc2C1=O` (stereo partly shown) [Compound 251], for which the IC50 in assay [1] (setting [4]) lay in the range of 100 to 500 nM. In assay [2], the inhibition at 0.1 µM lay within 25 to 49%.
